In US20100137313A1 (ASTRAZENECA AB, priority 2008, published 2010) one finds inhibition data, which are given here for 30 molecules.

The target of this assay is S. pneumoniae Topoisomerase IV ATPase (ParE) (Streptococcus pneumoniae serotype 4, UniProt Q59961). Kind of assay: S. pneumoniae Topoisomerase IV ATPase inhibition. The conditions noted are these: values marked * are an average of two or more data points, read-out: % Inh (13 μM) of S. pneumoniae Topoisomerase IV ATPase. The format is biochemical. The method in brief: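 Phosphate release by ParE ATPase from S. pneumoniae read colorimetrically (malachite green, 650 nm), enzyme 1.25 nM, ATP 160 μM, salmon sperm DNA present, buffer 20 mM Tris pH 8.0 with 8 mM MgCl2. IC50 over 10 compound concentrations, EDTA (20 μM) and DMSO controls defining inhibition range.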
S. pneumoniae Topoisomerase IV ATPase (ParE), sequence (Q59961 whole entry): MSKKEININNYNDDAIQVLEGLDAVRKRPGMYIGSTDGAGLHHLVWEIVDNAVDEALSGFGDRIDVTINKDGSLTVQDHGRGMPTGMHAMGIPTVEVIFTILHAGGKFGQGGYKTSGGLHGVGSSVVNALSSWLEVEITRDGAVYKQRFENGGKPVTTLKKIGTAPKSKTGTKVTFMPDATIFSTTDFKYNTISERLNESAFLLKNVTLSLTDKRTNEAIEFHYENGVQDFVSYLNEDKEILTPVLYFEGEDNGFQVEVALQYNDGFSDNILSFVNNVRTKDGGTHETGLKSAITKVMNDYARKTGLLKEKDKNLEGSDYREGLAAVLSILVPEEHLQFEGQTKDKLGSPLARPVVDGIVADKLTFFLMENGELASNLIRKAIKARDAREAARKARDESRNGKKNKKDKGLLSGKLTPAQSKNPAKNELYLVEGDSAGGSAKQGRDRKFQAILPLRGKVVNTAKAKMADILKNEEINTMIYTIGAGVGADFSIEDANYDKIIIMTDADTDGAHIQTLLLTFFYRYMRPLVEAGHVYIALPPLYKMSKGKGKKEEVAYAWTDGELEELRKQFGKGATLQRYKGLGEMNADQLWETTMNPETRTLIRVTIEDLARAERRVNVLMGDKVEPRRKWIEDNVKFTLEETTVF
For the molecule `O=C(O)/C=C/c1cccc(-c2cnc(Nc3ccc4c(c3)CCC4)nc2-n2ccc(C(F)(F)F)n2)c1` [Example 655, (2E)-3-(3-{2-(2,3-dihydro-1H-inden-5-ylamino)-4-[3-(trifluoromethyl)-1H-pyrazol-1-yl]pyrimidin-5-yl}phenyl)prop-2-enoic acid], the inhibition at 13 µM was found to be 89%.

For the molecule `COc1ncc(-c2cnc(Nc3cc(C)ccc3F)nc2-n2ccc(C(F)(F)F)n2)cc1C(=O)O` [Example 756, 5-{2-[(2-fluoro-5-methylphenyl)amino]-4-[3-(trifluoromethyl)-1H-pyrazol-1-yl]pyrimidin-5-yl}-2-methoxypyridine-3-carboxylic acid], the inhibition at 13 µM worked out at 56%.

In the case of `Fc1ccc(Nc2ncc(-c3cncnc3)c(NCC3CCCO3)n2)cc1Cl` (stereo not drawn) [Example 51, N-(3-chloro-4-fluorophenyl)-N′-(oxolan-2-ylmethyl)-5-pyrimidin-5-ylpyrimidine-2,4-diamine], the inhibition at 13 µM stood at 88.8%.

In the case of `COc1cc(Nc2ncc(-c3cnc(OC)c(C(=O)NS(C)(=O)=O)c3)c(-n3nc(C(F)(F)F)nc3C)n2)cc(OC)c1` [Example 1153, 5-(2-(3,5-dimethoxyphenylamino)-4-(5-methyl-3-(trifluoromethyl)-1H-1,2,4-triazol-1-yl)pyrimidin-5-yl)-2-methoxy-N-(methylsulfonyl)nicotinamide], the inhibition at 13 µM amounted to 100%.

Consider `COc1ncc(-c2cnc(Nc3ccc(F)c(Cl)c3)nc2NCc2cnn(C)c2C)cn1` [Example 469, N2-(3-chloro-4-fluorophenyl)-N4-((1,5-dimethyl-1H-pyrazol-4-yl)methyl)-2′-methoxy-5,5′-bipyrimidine-2,4-diamine], for which the inhibition at 13 µM came out at 64%.

On to `CCOC(=O)c1cncc(-c2cnc(Nc3ccc(F)c(Cl)c3)nc2NCC2CCCO2)c1` (stereo not drawn) [Example 108, ethyl 5-[2-[(3-chloro-4-fluorophenyl)amino]-4-(oxolan-2-ylmethylamino)pyrimidin-5-yl]pyridine-3-carboxylate], for which the inhibition at 13 µM is -18.1%.

As to `Cc1cc(C(F)F)n(-c2nc(Nc3ccc(F)c(Cl)c3)ncc2-c2cncc(C(=O)O)c2)n1` [Example 531, 5-{2-[(3-chloro-4-fluorophenyl)amino]-4-[5-(difluoromethyl)-3-methyl-1H-pyrazol-1-yl]pyrimidin-5-yl}pyridine-3-carboxylic acid], the inhibition at 13 µM is 100%.

For the molecule `Cc1cc(C(F)(F)F)nn1-c1nc(Nc2ccc(F)c(Cl)c2)ncc1-c1cncc(C(N)=O)c1` [Example 924, 5-(2-(3-chloro-4-fluorophenylamino)-4-(5-methyl-3-(trifluoromethyl)-1H-pyrazol-1-yl)pyrimidin-5-yl)nicotinamide], the inhibition at 13 µM is 97%.

With `CC(C)(C)OC(=O)NCCNc1nc(Nc2ccc(F)c(Cl)c2)ncc1-c1cncnc1` [Example 41, tert-butyl N-[2-[[2-[(3-chloro-4-fluorophenyl)amino]-5-pyrimidin-5-ylpyrimidin-4-yl]amino]ethyl] carbamate], the inhibition at 13 µM was found to be 72.7%.

Take `COc1cc(Cl)c(C)cc1Nc1ncc(-c2cccc(/C=C/C(=O)O)c2)c(NCCCN(C)C)n1` [Example 911, (E)-3-(3-(2-(4-chloro-2-methoxy-5-methylphenylamino)-4-(3-(dimethylamino)propylamino)pyrimidin-5-yl)phenyl)acrylic acid]: the inhibition at 13 µM was determined as 58%.

Regarding `O=C(O)c1cncc(-c2cnc(Nc3ccc(F)c(Cl)c3)nc2N2CCC(F)CC2)c1` [Example 248, 5-[2-[(3-chloro-4-fluorophenyl)amino]-4-(4-fluoropiperidin-1-yl)pyrimidin-5-yl]pyridine-3-carboxylic acid], the inhibition at 13 µM worked out at 66.1%.

In the case of `CN(C)CCCNc1nc(Nc2ccc(F)c(Cl)c2)ncc1-c1cccc(C(=O)O)c1` [Example 31, 3-(2-[(3-chloro-4-fluorophenyl)amino]-4-{[3-(dimethylamino)propyl]-amino}pyrimidin-5-yl)benzoic acid], the inhibition at 13 µM amounted to 86%.

As for `O=C1NC(=O)c2cc(-c3cnc(Nc4ccc(F)c(Cl)c4)nc3-n3ccc(C(F)(F)F)n3)ccc21` [Example 1009, 5-(2-(3-Chloro-4-fluorophenylamino)-4-(3-(trifluoromethyl)-1H-pyrazol-1-yl)pyrimidin-5-yl)isoindole-1,3-dione], the inhibition at 13 µM turned out to be 92%.

On to `COc1ncc(-c2cnc(Nc3cc(C)cc(C)c3)nc2-n2nc(C(F)(F)F)cc2C)cc1C(=O)NS(C)(=O)=O` [Example 899, 5-(2-(3,5-dimethylphenylamino)-4-(5-methyl-3-(trifluoromethyl)-1H-pyrazol-1-yl)pyrimidin-5-yl)-2-methoxy-N-(methylsulfonyl)nicotinamide], for which the inhibition at 13 µM worked out at 97%.

For `O=C(O)/C=C/c1cccc(-c2cnc(Nc3ccc(F)c(Cl)c3)nc2-n2cc(Cl)cn2)c1` [Example 313, (2E)-3-(3-{2-[(3-chloro-4-fluorophenyl)amino]-4-(4-chloro-1H-pyrazol-1-yl)pyrimidin-5-yl}phenyl)prop-2-enoic acid], the inhibition at 13 µM was 80.3%.

In the case of `CCC(C)Nc1nc(Nc2ccc(F)c(Cl)c2)ncc1-c1cc2ccccc2o1` (stereo not drawn) [Example 1108, 5-(1-benzofuran-2-yl)-N′-butan-2-yl-N-(3-chloro-4-fluorophenyl)pyrimidine-2,4-diamine], the inhibition at 13 µM was found to be 18%.

Turning to `CC(=O)NC1CCN(c2nc(Nc3ccc(F)c(Cl)c3)ncc2-c2cncnc2)CC1` [Example 69, N-[1-[2-[(3-chloro-4-fluorophenyl)amino]-5-pyrimidin-5-ylpyrimidin-4-yl]piperidin-4-yl]acetamide], the inhibition at 13 µM was 77%.

With `COc1cc(Nc2ncc(-c3cnc(OC)c(C(=O)NS(=O)(=O)C(C)C)c3)c(-n3ccc(C(F)(F)F)n3)n2)cc(OC)c1` [Example 818, 5-{2-[(3,5-dimethoxyphenyl)amino]-4-[3-(trifluoromethyl)-1H-pyrazol-1-yl]pyrimidin-5-yl}-2-methoxy-N-(propan-2-ylsulfonyl)pyridine-3-carboxamide], the inhibition at 13 µM worked out at 100%.

Turning to `COc1ncc(-c2cnc(Nc3cc(C)cc(Cl)c3)nc2-n2ccc(C(F)(F)F)n2)cc1C(=O)NS(C)(=O)=O` [Example 800, 5-{2-[(3-chloro-5-methylphenyl)amino]-4-[3-(trifluoromethyl)-1H-pyrazol-1-yl]pyrimidin-5-yl}-2-methoxy-N-(methylsulfonyl)pyridine-3-carboxamide], the inhibition at 13 µM turned out to be 99%.

For `COc1cc(Nc2ncc(-c3cccnc3)c(-n3nc(C(F)(F)F)cc3C)n2)cc(C(F)(F)F)c1` [Example 884, N-(3-methoxy-5-(trifluoromethyl)phenyl)-4-(5-methyl-3-(trifluoromethyl)-1H-pyrazol-1-yl)-5-(pyridin-3-yl)pyrimidin-2-amine], the inhibition at 13 µM stood at 100%.

As for `COc1cc(C)cc(Nc2ncc(-c3cnc(OC)c(C(=O)O)c3)c(-n3nc(C(F)(F)F)cc3C)n2)c1` [Example 761, 2-methoxy-5-{2-[(3-methoxy-5-methylphenyl)amino]-4-[5-methyl-3-(trifluoromethyl)-1H-pyrazol-1-yl]pyrimidin-5-yl}pyridine-3-carboxylic acid], the inhibition at 13 µM is 100%.

For the molecule `COc1cccc(Nc2ncc(-c3cncc(C(=O)O)c3)c(N3CCOCC3)n2)c1` [Example 439], the inhibition at 13 µM came out at 62%.

Turning to `O=C(O)/C=C/c1cccc(-c2cnc(Nc3ccc(F)c(Cl)c3)nc2-n2nnc3ccccc32)c1` [Example 325, (2E)-3-(3-{4-(1H-benzotriazol-1-yl)-2-[(3-chloro-4-fluorophenyl)amino]pyrimidin-5-yl}phenyl) prop-2-enoic acid], the inhibition at 13 µM turned out to be 102%.

Take `COc1cc(Nc2ncc(-c3cncc(C(=O)NCCS(C)(=O)=O)c3)c(-n3nc(C(F)(F)F)cc3C)n2)cc(OC)c1` [Example 685, 5-{2-[(3,5-dimethoxyphenyl)amino]-4-[5-methyl-3-(trifluoromethyl)-1H-pyrazol-1-yl]pyrimidin-5-yl}-N-[2-(methylsulfonyl)ethyl]pyridine-3-carboxamide]: the inhibition at 13 µM worked out at 100%.

As for `COc1ncc(-c2cnc(Nc3cccc(Cl)c3)nc2-n2nc(C(F)(F)F)cc2C)cc1C(=O)O` [Example 743, 5-{2-[(3-chlorophenyl)amino]-4-[5-methyl-3-(trifluoromethyl)-1H-pyrazol-1-yl]pyrimidin-5-yl}-2-methoxypyridine-3-carboxylic acid], the inhibition at 13 µM came to 94%.

For `Cc1cc(C(F)F)nn1-c1nc(Nc2ccc(F)c(Cl)c2)ncc1-c1cncc(C(=O)O)c1` [Example 530, 5-{2-[(3-chloro-4-fluorophenyl)amino]-4-[3-(difluoromethyl)-5-methyl-1H-pyrazol-1-yl]pyrimidin-5-yl}pyridine-3-carboxylic acid], the inhibition at 13 µM was 100%.

`CCCS(=O)(=O)NC(=O)c1cc(-c2cnc(Nc3cc(C)cc(C)c3)nc2-n2ccc(C(F)(F)F)n2)cnc1OC` [Example 824, 5-{2-[(3,5-dimethylphenyl)amino]-4-[3-(trifluoromethyl)-1H-pyrazol-1-yl]pyrimidin-5-yl}-2-methoxy-N-(propylsulfonyl)pyridine-3-carboxamide]: the inhibition at 13 µM is 100%.

As for `CN(C)CCCNc1nc(Nc2ccc(F)c(Cl)c2)ncc1-c1cn[nH]c1` [Example 20, N^2-(3-chloro-4-fluorophenyl)-N^4-[3-(dimethylamino)propyl]-5-(1H-pyrazol-4-yl)pyrimidine-2,4-diamine], the inhibition at 13 µM amounted to 74.6%.

In the case of `CCS(=O)(=O)NC(=O)c1cc(-c2cnc(Nc3cc(C)cc(C)c3)nc2-n2ccc(C(F)(F)F)n2)cnc1OC` [Example 822, 5-{2-[(3,5-dimethylphenyl)amino]-4-[3-(trifluoromethyl)-1H-pyrazol-1-yl]pyrimidin-5-yl}-N-(ethylsulfonyl)-2-methoxypyridine-3-carboxamide], the inhibition at 13 µM came out at 100%.

As to `Cc1cc(Nc2ncc(-c3cccc(/C=C/C(=O)O)c3)c(N3CCOCC3)n2)ccc1F` [Example 450], the inhibition at 13 µM was 86%.
